The results in this text go back to publication PMC12040169 (PLOS Biology, 2025).

This series can be described thus: in vitro. The note with it: human, hela cells, % viability.

The structures appear in SMILES notation.

In general, viability refers to a read-out of living cells in per cent, often relative to untreated cells. In the case of `Cc1noc(N)c1C1OC(=O)c2ccccc21` (centres unmarked) [CBK022932], the viability at 28.5 h, 10 µM turned out to be 104%.
On to `CC(C)(C)C(=O)NC(NC(=S)Nc1sc2c(c1C(N)=O)CCCC2)C(Cl)(Cl)Cl` (centres unmarked) [CBK261052], for which the viability at 28.5 h, 10 µM came out at 94.7%.
Consider `O=C(O)CSc1c[nH]c2ccccc12` [CBK026377], for which the viability at 28.5 h, 10 µM came out at 93.9%.
For `Cc1c(F)cccc1CN(CC(C)(C)CN)C(=O)Nc1ccc(C(F)(F)F)cc1` [CBK002417C], the viability at 28.5 h, 10 µM was found to be 89.5%.
`COc1ccccc1C(C)N(C)CCC(=O)Nc1cc(C)on1` (centres unmarked) [CBK305098]: the viability at 28.5 h, 10 µM amounted to 94.1%.
With `COc1ccc(-c2nnc(S)n2/N=C\c2ccc(C(=O)O)cc2)cc1` [CBK264419], the viability at 28.5 h, 10 µM stood at 92.4%.
With `Cn1ccnc1CN1C[C@@H]2CCCN2C[C@@H]1Cc1ccccc1` [CBK283202], the viability at 28.5 h, 10 µM turned out to be 91.1%.
Consider `Cc1c(Cc2ccccc2)c(-n2ccnc2C)n2c(nc3ccccc32)c1C#N` [CBK263144], for which the viability at 28.5 h, 10 µM amounted to 92.4%.
As for `CN(Cc1ccccc1)C(=O)c1c[nH]nc1C1CCCN(Cc2cccc(Cl)c2)C1` (centres unmarked) [CBK286490], the viability at 28.5 h, 10 µM was 91%.
For the molecule `CCc1[nH]nc(C)c1Cc1c(Cl)cccc1Cl` [CBK093598], the viability at 28.5 h, 10 µM is 106%.
To `O=C(O)c1cc(C(=O)O)cc(N2C(=O)c3ccc(-c4ccc5c(c4)C(=O)N(c4cc(C(=O)O)cc(C(=O)O)c4)C5=O)cc3C2=O)c1` [CBK261331] belongs 96.6%.
As to `COc1cccc(-n2c(C)nnc2C2(OC(C)=O)CCN(CCc3ccccc3)CC2)c1` [CBK016371], the viability at 28.5 h, 10 µM turned out to be 108%.
`CN(CC(=O)Nc1ccn(Cc2cccnc2)n1)c1ccc(C#N)cn1` [CBK306105]: the viability at 28.5 h, 10 µM stood at 87.3%.
With `CC(C)(C)c1cc(C(C)(C)C)cc(S(=O)(=O)CCc2ccccn2)c1` [CBK261073], the viability at 28.5 h, 10 µM turned out to be 88.4%.
On to `CC(C)CC(NC(=O)Cc1cccc(O)c1)c1ncnn1C` (centres unmarked) [CBK307050], for which the viability at 28.5 h, 10 µM worked out at 105%.
As for `COc1ccc2c(c1)C1(CC(=O)N(CC(=O)N(C)OC)C1=O)C(=O)N2CCCCOc1ccccc1` (centres unmarked) [CBK076032], the viability at 28.5 h, 10 µM came out at 92.6%.
As to `O=C(CCn1c(=O)oc2ccccc21)Nc1ccc2c(c1)CN(Cc1ccccc1)C2` [CBK285946], the viability at 28.5 h, 10 µM is 120%.
As to `CCOC(=O)Cn1nc(C)c(Cc2c(Cl)cccc2Cl)c1CC` [CBK113223], the viability at 28.5 h, 10 µM came out at 85%.
For the molecule `O=C(CCc1ccc(O)c(O)c1)NNC(=S)Nc1ccc(F)cc1F` [CBK267041], the viability at 28.5 h, 10 µM was found to be 114%.
Turning to `OC1CCCCC1C1(NC(=S)Nc2ccccc2)CCCCC1` (centres unmarked) [CBK026324], the viability at 28.5 h, 10 µM was determined as 97.9%.
As to `Cc1ccc(S(=O)(=O)Nc2ccc(Nc3cc(-c4cccc5oc6ccccc6c45)ncn3)cc2)cc1` [CBK090977], the viability at 28.5 h, 10 µM was 91.1%.
For `Cc1cc(C)nc(SCc2nc(N)nc(-c3ccccc3O)n2)n1` [CBK266725], the viability at 28.5 h, 10 µM was 94.4%.
To `COc1ccc2[nH]c3c(c2c1)CCN(CC(C)O)C31CCN(CCOc2ccccc2)C1` (centres unmarked) [CBK084612T] belongs 73%; to `CC(C)C(=O)NC(NC(=S)Nc1sc2c(c1C(N)=O)CCCC2)C(Cl)(Cl)Cl` (centres unmarked) [CBK261050], 94%.
For `COc1ccc(C)cc1NC(=O)Nc1nc(C)cs1` [CBK006565], the viability at 28.5 h, 10 µM stood at 83.3%.
For `Cc1cc(C)nc(SCCC(=O)O)n1` [CBK260975], the viability at 28.5 h, 10 µM stood at 87.7%.
For the molecule `COc1nn(C)c(CO)c1Cc1c(Cl)cccc1Cl` [CBK092285T], the viability at 28.5 h, 10 µM stood at 94.2%.
In the case of `CC1CCCC(C)N1CC(O)COCc1ccc2c(c1)OCO2` (centres unmarked) [CBK263134C], the viability at 28.5 h, 10 µM was found to be 86.3%.
On to `COc1ccc(CNC(=O)C2CCCN(S(=O)(=O)c3cccs3)C2)cc1` (centres unmarked) [CBK304628], for which the viability at 28.5 h, 10 µM was 95.8%.
`O=C(CSc1nnc(SCc2cccc3ccccc23)s1)Nc1ccc(F)c(Cl)c1` [CBK267574]: the viability at 28.5 h, 10 µM turned out to be 92.1%.
Regarding `COc1ccc(CN2CCN(C(=O)c3cccs3)CC2)cc1OC` [CBK074410], the viability at 28.5 h, 10 µM was 104%.
In the case of `COc1ccc2[nH]cc(CCNC(=O)c3cncnc3)c2c1` [CBK122720], the viability at 28.5 h, 10 µM is 87.1%.
Turning to `CC1(OCCN2CCOCC2)SC(NC2CC3CCC2C3)=NC1=O` (centres unmarked) [CBK116313], the viability at 28.5 h, 10 µM turned out to be 83.8%.
With `Brc1ccc(-c2nnco2)cc1` [CBK026512] the figure was 84.3%; with `CC(C)Nc1nc2ccccc2nc1SCCN(C)C` [CBK103672], 115%; with `CC(C)(C)c1ccc(OCC(O)CSc2nnc[nH]2)cc1` (centres unmarked) [CBK261776], 103%.
To `COc1cc(NC(=S)N2CCN(c3cc(Cl)ccc3C)CC2)cc(OC)c1` [CBK266252] belongs 100%.
With `COc1ccc(-c2ccnc3[nH]c(=O)ccc23)cc1C` [CBK073726] the figure was 110%; with `Cc1nc2ccc(C(=O)N(C)Cc3ccco3)cn2c1N(C)C=O` [CBK145482], 99%; with `O=C(O)C[C@@H]1CCN(C(=O)C2CCCCC2)C[C@@H]1CCN1CCCCC1` [CBK288781], 90.1%.
Take `CC(=O)Nc1cccc(-c2cncc(NC3CCC(O)CC3)n2)c1` (centres unmarked) [CBK065404]: the viability at 28.5 h, 10 µM is 88.6%.
On to `CC(=O)Nc1ccc(-c2ccc(C(=O)NCc3ccc(C(C)C)cc3)cn2)cc1` [CBK158857], for which the viability at 28.5 h, 10 µM is 101%.
On to `CN1C(=O)COc2ccccc2CCCC[C@@H]2[C@H]1CCCN2C(=O)CCn1ccnc1` [CBK292150], for which the viability at 28.5 h, 10 µM was determined as 96.6%.
`NS(=O)(=O)c1ccc(/N=C/c2cccc(OCc3ccccc3)c2)cc1` [CBK261594]: the viability at 28.5 h, 10 µM came out at 92.1%.
Turning to `CC(c1ccc(F)c(F)c1)N(C)C(=O)Cn1ncn(C)c1=O` (centres unmarked) [CBK305083], the viability at 28.5 h, 10 µM turned out to be 80.2%.
Regarding `O=C(c1cccs1)N1CCC[C@@H]1Cn1c(=O)oc2ccccc21` [CBK284528], the viability at 28.5 h, 10 µM was 102%.
To `OCCN(Cc1cccnc1)Cc1cccn1-c1cccc(F)c1` [CBK283018] belongs 81.5%; to `CS(=O)(=O)Nc1ccc(-c2ccccc2)c2ccccc12` [CBK083741], 93.2%.
For the molecule `O=C(O)CC1SC(Nc2cccc(Cl)c2)=NC1=O` (centres unmarked) [CBK131683], the viability at 28.5 h, 10 µM came out at 105%.
Regarding `CCc1nc2c(OCc3ccccc3)cccn2c1N(C)C(=O)Nc1ccccc1OC` [CBK147890], the viability at 28.5 h, 10 µM was found to be 98.7%.
With `Cc1cc(S(=O)(=O)NCC(=O)OC(C)C)c(C)cc1Cl` [CBK044196] the figure was 101%.
To `COc1ccc(-c2cc(C(=O)Nc3cnc4ccccc4c3)cnc2-c2cccc(C)c2)cn1` [CBK037425] belongs 89.8%; to `Cn1c(N)c(C(=O)NCC2CCCO2)c2nc3ccccc3nc21` (centres unmarked) [CBK269342], 96.8%; to `Cc1nc(N2CCCC2)ncc1-c1cc(O)nc(N2CCCCC2)n1` [CBK288226], 92.3%.
To `O=C(NCc1ccccc1)c1ccco1` [CBK086713] belongs 118%; to `O=C(CCc1cccnc1)NC1Cc2ccccc2C1` [CBK200352], 97.4%; to `O=C(NCc1ccccc1Cl)N(Cc1cccc(Cl)c1)CC1CCNCC1` [CBK049762], 80.4%.
In the case of `COc1ccc(C)cc1S(=O)(=O)Nc1ccc(O[C@@H]2CCNC2)c2ccccc12` [CBK051622C], the viability at 28.5 h, 10 µM turned out to be 104%.
Consider `O=C(NC1CCN(Cc2cc(F)cc(F)c2)CC1)c1cn2ccsc2n1` [CBK306970], for which the viability at 28.5 h, 10 µM was 80%.
To `O=C(CSc1nnc(-c2ccncc2)[nH]1)c1ccc(O)cc1O` [CBK264353] belongs 102%.
With `Cn1cc(CN2CCOC[C@H]2c2nc(C(C)(C)C)c[nH]2)c2ccccc21` [CBK289322], the viability at 28.5 h, 10 µM came to 118%.
On to `CSCCOc1nc2ccccc2nc1N1CCCC1` [CBK115770], for which the viability at 28.5 h, 10 µM was 91.3%.
On to `Cc1cc(=O)oc2cc(OCC(=O)Nc3cccc(C(=O)O)c3)ccc12` [CBK287058], for which the viability at 28.5 h, 10 µM stood at 85%.
Turning to `CN1CCC(C(=O)N2CCN(c3ccccc3)CC2)CC1` [CBK200211], the viability at 28.5 h, 10 µM is 93.5%.
With `Nc1ccc(-c2nc(NC(=O)c3cccs3)cnc2-c2ccc(F)cc2)cc1` [CBK037597] the figure was 94.2%; with `O=C(CSc1oc(-c2ccco2)nc1S(=O)(=O)c1ccccc1)c1ccccc1` [CBK268424], 96.9%; with `O=C(Nc1cnc(-c2ccc(F)c(Cl)c2)c(-c2cccnc2)n1)c1cnccn1` [CBK036819], 102%.
In the case of `CCCS(=O)(=O)NC1CC(C)(C)Cc2c1cnn2-c1ccccc1` (centres unmarked) [CBK307265], the viability at 28.5 h, 10 µM was 98.1%.
To `COc1cc(OC)c(NC(=O)N2CCC(n3c(=O)[nH]c4ccccc43)CC2)cc1Cl` [CBK149851] belongs 91.4%.
`NS(=O)(=O)c1ccc(NC(=O)C2Cc3ccccc3CN2S(=O)(=O)c2ccc(F)cc2)cc1` (centres unmarked) [CBK265208]: the viability at 28.5 h, 10 µM worked out at 103%.
With `Fc1cccc2sc(Nc3nc(-c4cccs4)cs3)nc12` [CBK287476], the viability at 28.5 h, 10 µM came out at 85.9%.
On to `Cc1sc2nc(SCCCC(=O)NCCO)nc(N)c2c1C` [CBK264482], for which the viability at 28.5 h, 10 µM came to 96.2%.
As to `Cc1ccc(N)c(C(=O)CCC(=O)O)c1` [CBK017815C], the viability at 28.5 h, 10 µM came to 92.1%.
Take `CC(C)(C)c1cc2cc(NC(=O)C3CC3)ccc2[nH]1` [CBK019994]: the viability at 28.5 h, 10 µM came out at 115%.
Consider `Cn1c(=O)c2c(nc(CN3CCOCC3)n2CCN2CCOCC2)n(C)c1=O` [CBK269560], for which the viability at 28.5 h, 10 µM came to 106%.
For `Cc1cn2cccc(C(=O)N3CCCCC3CCN3CCOCC3)c2n1` (centres unmarked) [CBK306518], the viability at 28.5 h, 10 µM turned out to be 90.3%.
Regarding `O=C(Cn1cccc(C(=O)NC2CCCCC2)c1=O)NCC1(c2ccccc2Cl)CC1` [CBK286054], the viability at 28.5 h, 10 µM was found to be 94.6%.
For `CC(=O)Nc1ccc(-c2nnc(SCc3c(Cl)cccc3[N+](=O)[O-])n2C)cc1` [CBK265823], the viability at 28.5 h, 10 µM worked out at 89.1%.
Regarding `C[C@@H](Nc1nccnc1-c1cccc(F)c1)c1ccccc1` [CBK036733], the viability at 28.5 h, 10 µM was 98.3%.
On to `COc1cc(-c2nccnc2NCCc2c[nH]c3ccccc23)cc(OC)c1OC` [CBK038015], for which the viability at 28.5 h, 10 µM was 102%.
